In patent US20250270246A1, “LINCOSAMIDES AND USES THEREOF” (President and Fellows of Harvard College, priority 2022, published 2025):
Counter-ions that a name gives are not always drawn. Like-named read-outs stand apart in the source and are kept apart here.

Legend:
[1] = rcm bond, Grubbs II (20 mol%)/benzoquinone, toluene
[2] = system: E. coli lptD mutant; assay: MIC by broth microdilution (CLSI); format: cell-based; conditions: CaMHB, 24 h incubation; for MIC: Escherichia coli, 24 h, read-out: MIC E. coli lptD mutant, lptD mutant / ΔlptD mutant
Protocol: (§1) Minimum inhibitory concentrations (MICs) were determined by the broth microdilution method following the Clinical and Laboratory Standards Institute (CLSI) guidelines. Test organisms consisted of standard reference strains from the American Type Culture Collection (ATCC; Manassa, VA, USA) and clinical isolates obtained from JMI Laboratories Inc. (North Liberty, IA, USA), Micromyx repository (MMX; Kalamazoo, MI, USA), and Massachusetts Eye and Ear Hospital (Boston, USA). Before the start of the MIC experiment, standard and test compound stock solutions were prepared in dimethyl sulfoxide (DMSO, Aldrich D2650) at a stock concentration of 2,560 μg/mL. The compound concentration range typically employed for each experiment was 64-0.06 μg/mL (2.5% final DMSO concentration). Iboxamycin was used as a comparator in all experiments. All bacterial strains were sub-cultured on blood agar plates (tryptic soy agar with 5% sheep blood, Hardy Diagnostics) and incubated overnight at 35° C. Organisms were suspended in cation-adjusted Mueller-Hinton broth (CaMHB, BD 212322) and optical density was adjusted to 0.5 McFarland standard. Suspensions were further diluted to obtain a final inoculum of 5×10^5 CFU/mL for broth microdilution experiments. The minimum concentration of compound required to inhibit visible bacterial growth after 24 h of incubation was recorded as the MIC in μg/mL. MICs for P. aeruginosa were recorded in cation-adjusted Mueller-Hinton broth which had been pre-treated with Chelex 100 ion exchange resin according to procedures reported in Ito et al. Antimicrob Agents Chemother (2016) 60 (12), 7396-7401.

[3] = system: S. aureus Clinical (cfr); assay: MIC by broth microdilution (CLSI); format: cell-based; conditions: for MIC: Staphylococcus aureus, 24 h, read-out: MIC S. aureus Clinical (cfr)
Protocol: as §1

[4] = system: E. coli ΔtolC; assay: MIC by broth microdilution (CLSI); format: cell-based; conditions: CaMHB, 24 h incubation; for MIC: Escherichia coli, 24 h, read-out: MIC E. coli ΔtolC, ΔtolC
Protocol: as §1

[5] = system: K. pneumoniae JMI-991193; assay: MIC by broth microdilution (CLSI); format: cell-based; conditions: for MIC: Klebsiella pneumoniae, JMI991193, 24 h, read-out: MIC K. pneumoniae JMI-991193
Protocol: as §1

[6] = system: S. aureus ATCC 29213 (HAV#001); assay: MIC by broth microdilution (CLSI); format: cell-based; conditions: for MIC: Staphylococcus aureus, ATCC29213, 24 h, read-out: MIC S. aureus ATCC 29213
Protocol: as §1

[7] = system: S. aureus MMX 3035; assay: MIC by broth microdilution (CLSI); format: cell-based; conditions: for MIC: Staphylococcus aureus, MMX3035, 24 h, read-out: MIC S. aureus MMX 3035
Protocol: as §1

[8] = system: E. coli ATCC 25922 (HAV#006); assay: MIC by broth microdilution (CLSI); format: cell-based; conditions: for MIC: Escherichia coli, ATCC25922, 24 h, read-out: MIC E. coli ATCC 25922
Protocol: as §1

[9] = system: E. faecalis ATCC 29212 (HAV#005); assay: MIC by broth microdilution (CLSI); format: cell-based; conditions: for MIC: Enterococcus faecalis, ATCC29212, 24 h, read-out: MIC E. faecalis ATCC 29212
Protocol: as §1

[10] = system: A. baumannii ATCC 19606 (HAV#010); assay: MIC by broth microdilution (CLSI); format: cell-based; conditions: for MIC: Acinetobacter baumannii, ATCC19606, 24 h, read-out: MIC A. baumannii ATCC 19606
Protocol: as §1

[11] = system: E. faecium JMI-990536; assay: MIC by broth microdilution (CLSI); format: cell-based; conditions: for MIC: Enterococcus faecium, JMI990536, 24 h, read-out: MIC E. faecium JMI-990536
Protocol: as §1

SMILES | MIC [2] | MIC [3] | MIC [4] | MIC [5] | MIC [6] | MIC [7] | MIC [8] | MIC [9] | MIC [10] | MIC [11] | also measured
C[C@H]1/C=C/CCS[C@H]2O[C@H]([C@@H]1N[S@](=O)C(C)(C)C)[C@H](OC(=O)c1ccccc1)[C@H](OC(=O)c1ccccc1)[C@H]2OC(=O)c1ccccc1 | – | – | – | – | – | – | – | – | – | – | ring closure, isolated yield ([1]; from C=CCCS[C@H]1O[C@H]([C@H](N[S@](=O)C(C)(C)C)[C@@H](C)C=C)[C@H](OC(=O)c2ccccc2)[C@H](OC(=O)c2ccccc2)[C@H]1OC(=O)c1ccccc1, 10-membered ring, 0.2 mM, 0.33 h): 6%
C[C@@H]1/C=C\CCS[C@H]2O[C@H]([C@@H]1N[S@](=O)C(C)(C)C)[C@H](OC(=O)c1ccccc1)[C@H](OC(=O)c1ccccc1)[C@H]2OC(=O)c1ccccc1 | – | – | – | – | – | – | – | – | – | – | ring closure, isolated yield ([1]; from C=CCCS[C@H]1O[C@H]([C@H](N[S@](=O)C(C)(C)C)[C@H](C)C=C)[C@H](OC(=O)c2ccccc2)[C@H](OC(=O)c2ccccc2)[C@H]1OC(=O)c1ccccc1, 10-membered ring, 0.2 mM, 0.33 h): 19%
O=C(N[C@@H]1C/C=C\CCS[C@H]2O[C@H]1[C@H](O)[C@H](O)[C@H]2O)C(F)(F)F | – | – | – | – | – | – | – | – | – | – | ring closure, isolated yield ([1]; from C=CCCS[C@H]1O[C@H]([C@@H](CC=C)NC(=O)C(F)(F)F)[C@H](O)[C@H](O)[C@H]1O, 10-membered ring, 0.4 mM, 0.33 h): 39%
CC(=O)O[C@@H]1[C@H](OC(C)=O)[C@@H](OC(C)=O)[C@@H]2O[C@@H]1[C@H](N[S@](=O)C(C)(C)C)C(C)/C=C/CCCCS2 (stereo partly shown) | – | – | – | – | – | – | – | – | – | – | ring closure, isolated yield ([1]; from C=CCCCCS[C@H]1O[C@H]([C@H](N[S@](=O)C(C)(C)C)[C@H](C)C=C)[C@H](OC(C)=O)[C@H](OC(C)=O)[C@H]1OC(C)=O, 12-membered ring, 2.0 mM, 0.25 h): 64.8%
C[C@@H]1/C=C\C[C@@H](CO[Si](C)(C)C(C)(C)C)S[C@H]2O[C@H]([C@@H]1N[S@](=O)C(C)(C)C)[C@H](OC(=O)c1ccccc1)[C@H](OC(=O)c1ccccc1)[C@H]2OC(=O)c1ccccc1 | – | – | – | – | – | – | – | – | – | – | ring closure, isolated yield ([1]; from C=CCC(CO[Si](C)(C)C(C)(C)C)S[C@H]1O[C@H]([C@H](N[S@](=O)C(C)(C)C)C(C)C=C)[C@H](OC(=O)c2ccccc2)[C@H](OC(=O)c2ccccc2)[C@H]1OC(=O)c1ccccc1, 10-membered ring, 2.0 mM, 0.25 h): 85%
C#C[C@@H]1C/C=C\C[C@@H](NC(=O)[C@H]2NC[C@@H]3C[C@H](CC(C)C)CCO[C@H]32)[C@H]2O[C@H](S1)[C@H](O)[C@@H](O)[C@H]2O [FSA1607077, (4S,5aS,8S,8aR)—N-((1R,3S,8R,9R,10R,11S,12R,Z)-3-ethynyl-10,11,12-trihydroxy-13-oxa-2-thiabicyclo[7.3.1]tridec-5-en-8-yl)-4-isobutyloctahydro-2H-oxepino[2,3-c]pyrrole-8-carboxamide formate salt] | 1 µg/mL | 16 µg/mL | 1 µg/mL | 16 µg/mL | ≤ 0.125 µg/mL | 4 µg/mL | 4 µg/mL | ≤ 0.125 µg/mL | 8 µg/mL | 2 µg/mL | –
CC(C)C[C@@H]1CCO[C@@H]2[C@H](CN[C@@H]2C(=O)N[C@@H]2C/C=C\C[C@@H](c3cn(-c4ccc(F)cc4)nn3)S[C@H]3O[C@H]2[C@H](O)[C@H](O)[C@H]3O)C1 [FSA1608021, (4S,5aS,8S,8aR)—N-((1R,3S,8R,9R,10R,11S,12R,Z)-3-(1-(4-fluorophenyl)-1H-1,2,3-triazol-4-yl)-10,11,12-trihydroxy-13-oxa-2-thiabicyclo[7.3.1]tridec-5-en-8-yl)-4-isobutyloctahydro-2H-oxepino[2,3-c]pyrrole-8-carboxamide formate salt] | 0.25 µg/mL | 4 µg/mL | 1 µg/mL | 4 µg/mL | 0.5 µg/mL | 2 µg/mL | 1 µg/mL | 0.5 µg/mL | 4 µg/mL | 0.5 µg/mL | –
CC(C)C[C@@H]1CCO[C@@H]2[C@H](CN[C@@H]2C(=O)N[C@@H]2C/C=C\C[C@@H](c3cn(-c4ccccc4)nn3)S[C@H]3O[C@H]2[C@H](O)[C@H](O)[C@H]3O)C1 [FSA1607075, (4S,5aS,8S,8aR)-4-isobutyl-N-((1R,3S,8R,9R,10R,11S,12R,Z)-10,11,12-trihydroxy-3-(1-phenyl-1H-1,2,3-triazol-4-yl)-13-oxa-2-thiabicyclo[7.3.1]tridec-5-en-8-yl) octahydro-2H-oxepino[2,3-c]pyrrole-8-carboxamide formate salt] | 2 µg/mL | – | 2 µg/mL | – | – | – | – | – | – | – | MIC ([3]; Clinical (cfr), CaMHB, 24 h incubation): 8 µg/mL; MIC ([5]; JMI-991193, CaMHB, 24 h incubation): 32 µg/mL; MIC ([6]; HAV#001, ATCC 29213, CaMHB, 24 h incubation): 2 µg/mL; MIC ([7]; MMX 3035, CaMHB, 24 h incubation): 4 µg/mL; MIC ([8]; HAV#006, ATCC 25922, CaMHB, 24 h incubation): 4 µg/mL; MIC ([9]; HAV#005, ATCC 29212, CaMHB, 24 h incubation): 2 µg/mL; MIC ([10]; HAV#010, ATCC 19606, CaMHB, 24 h incubation): 8 µg/mL; MIC ([11]; JMI-990536, CaMHB, 24 h incubation): 2 µg/mL
CC(C)C[C@@H]1CCO[C@@H]2[C@H](CN[C@@H]2C(=O)N[C@H]2[C@H]3O[C@H](SCCC/C=C/[C@H]2C)[C@H](O)[C@@H](O)[C@H]3O)C1 [FSA1609095, (4S,5aS,8S,8aR)-4-isobutyl-N-((1R,8R,9R,10R,11R,12S,13R,E)-11,12,13-trihydroxy-8-methyl-14-oxa-2-thiabicyclo[8.3.1]tetradec-6-en-9-yl) octahydro-2H-oxepino[2,3-c]pyrrole-8-carboxamide formate salt] | – | – | – | – | – | – | – | – | – | – | MIC E. coli lptD mutant ([2]; lptD mutant / ΔlptD mutant, formate salt): 0.5 µg/mL; MIC S. aureus Clinical (cfr) ([3]; Clinical (cfr), CaMHB, 24 h incubation, formate salt): 8 µg/mL; MIC E. coli ΔtolC ([4]; ΔtolC, formate salt): 4 µg/mL; MIC K. pneumoniae JMI-991193 ([5]; JMI-991193, CaMHB, 24 h incubation, formate salt): 16 µg/mL; MIC S. aureus ATCC 29213 ([6]; HAV#001, ATCC 29213, CaMHB, 24 h incubation, formate salt): ≤0.06 µg/mL; MIC S. aureus MMX 3035 ([7]; MMX 3035, CaMHB, 24 h incubation, formate salt): 2 µg/mL; MIC E. coli ATCC 25922 ([8]; HAV#006, ATCC 25922, CaMHB, 24 h incubation, formate salt): 8 µg/mL; MIC E. faecalis ATCC 29212 ([9]; HAV#005, ATCC 29212, CaMHB, 24 h incubation, formate salt): 0.125 µg/mL; MIC A. baumannii ATCC 19606 ([10]; HAV#010, ATCC 19606, CaMHB, 24 h incubation, formate salt): 4 µg/mL; MIC E. faecium JMI-990536 ([11]; JMI-990536, CaMHB, 24 h incubation, formate salt): 2 µg/mL
CC(C)C[C@@H]1CCO[C@@H]2[C@H](CN[C@@H]2C(=O)N[C@H]2[C@H]3O[C@H](S[C@H](c4cn(-c5ccc(F)cc5F)nn4)C/C=C\[C@H]2C)[C@H](O)[C@@H](O)[C@H]3O)C1 [FSA1609052, (4S,5aS,8S,8aR)—N-((1R,3S,7R,8R,9R,10R,11S,12R,Z)-3-(1-(2,4-difluorophenyl)-1H-1,2,3-triazol-4-yl)-10,11,12-trihydroxy-7-methyl-13-oxa-2-thiabicyclo[7.3.1]tridec-5-en-8-yl)-4-isobutyloctahydro-2H-oxepino[2,3-c]pyrrole-8-carboxamide formate salt] | 0.125 µg/mL | 0.5 µg/mL | 0.125 µg/mL | 4 µg/mL | 0.25 µg/mL | 0.5 µg/mL | 2 µg/mL | 0.25 µg/mL | 1 µg/mL | 0.5 µg/mL | –
